Measurements published in patent EP0312157A2, “Tetrapeptide renin inhibitors having a novel c-terminal amino acid” (Merck & Co., Inc., priority 1987, dated 1989).
Structures can show the parent of a compound that is named as a salt.

Target: T1, renin (Homo sapiens, UniProt P00797)
T1 sequence (P00797 67-406): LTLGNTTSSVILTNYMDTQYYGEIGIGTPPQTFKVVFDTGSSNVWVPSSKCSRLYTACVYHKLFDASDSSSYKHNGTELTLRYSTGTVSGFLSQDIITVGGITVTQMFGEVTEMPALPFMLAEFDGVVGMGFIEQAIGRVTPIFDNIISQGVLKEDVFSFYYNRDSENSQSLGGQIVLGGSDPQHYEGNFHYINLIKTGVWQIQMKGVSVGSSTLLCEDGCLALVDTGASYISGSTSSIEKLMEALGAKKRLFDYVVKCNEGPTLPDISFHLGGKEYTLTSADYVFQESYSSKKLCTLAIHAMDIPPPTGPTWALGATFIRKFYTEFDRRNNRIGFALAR
Assay: renin inhibition, IC50 (method not described)
Type: biochemical

Compound	IC50 [nM]
CC(C)(C)OC(=O)N[C@@H](Cc1ccccc1)C(=O)N[C@@H](Cc1c[nH]cn1)C(=O)N[C@@H](CC1CCCCC1)[C@@H](O)CC(=O)N[C@@H](CCCCN)C(=O)NCc1ccncc1 [Example 1, N^α-t-butoxycarbonyl-L-Phenylalanyl-L-histidyl-(3S,4S)-4-amino-5-cyclohexyl-3-hydroxypentanoyl-L-lysyl-4-(aminomethyl)pyridine amide hydrochloride]	38
CC(C)(C)OC(=O)N[C@@H](Cc1ccccc1)C(=O)N[C@@H](Cc1c[nH]cn1)C(=O)N[C@@H](CC1CCCCC1)[C@@H](O)CC(=O)N[C@@H](CCCCN)C(=O)NCC1CCNCC1 [Example 2, N^α-t-butoxycarbonyl-L-phenylalanyl-L-histidyl-{3S,4S)-4-amino-5-cyclohexyl-3-hydroxy-pentanoyl-L-lysyl-4-(aminomethyl)-piperidinamide dihydrochloride]	338
CN(CCc1ccccn1)C(=O)[C@H](CCCCN)NC(=O)C[C@H](O)[C@H](CC1CCCCC1)NC(=O)[C@H](Cc1c[nH]cn1)NC(=O)[C@H](Cc1ccccc1)NC(=O)OC(C)(C)C [Example 5, N^α-t-butoxycarbonyl-L-phenylalanyl-L-histidyl-(3S,4S)-4-amino-5-cyclohexyl-3-hydroxypentanoyl-L-lysyl-2-(2-methylaminoethyl)-pyridinamide acetate]	225
COc1ccc(C[C@H](NC(=O)OC(C)(C)C)C(=O)N[C@@H](Cc2c[nH]cn2)C(=O)N[C@@H](CC2CCCCC2)[C@@H](O)CC(=O)N[C@@H](CCCCN)C(=O)NCc2ccncc2)cc1 [Example 6, N^α-t-butoxycarbonyl-O-methyl-L-tyrosyl-L-histidyl-(3S,4S)-4-amino-5-cyclohexyl-3-hydroxy-pentanoyl-L-lysyl-4-(aminomethyl)pyridine amide]	42
CC(C)(C)OC(=O)N[C@@H](Cc1ccccc1)C(=O)N[C@@H](Cc1c[nH]cn1)C(=O)N[C@@H](CC1CCCCC1)[C@@H](O)CC(=O)N[C@@H](CCCCN)C(=O)N[C@H]1CCCCNC1=O [Example 9, N^α-t-butoxycarbonyl-L-phenylalanyl-L-histidyl-(3S,4S)-4-amino-5-cyclohexyl-3-hydroxypentanoyl-L-lysyl-L-3-amino-2-oxoazepine amide hydrochloride]	26.4
CC(C)(C)OC(=O)N[C@@H](Cc1ccccc1)C(=O)N[C@@H](Cc1c[nH]cn1)C(=O)N[C@@H](CC1CCCCC1)[C@@H](O)CC(=O)N[C@@H](CN)C(=O)NCc1ccncc1 [Example 10, N^α-t-butoxycarbonyl-L-phenylalanyl-L-histidyl-(3S,4S)-4-amino-5-cyclohexyl-3-hydroxypentanoyl-L-2,4-diaminopropionyl-4-(aminomethyl)pyridine amide hydrochloride]	37
NCCCC[C@H](NC(=O)C[C@H](O)[C@H](CC1CCCCC1)NC(=O)[C@H](Cc1c[nH]cn1)NC(=O)[C@H](Cc1ccccc1)NC(=O)N1CCOCC1)C(=O)NCc1ccncc1 [Example 23, N-[(Morpholin-4-yl)carbonyl]Phe-His-ACHPA-Lys-NHCH2(pyridin-4-y1)]	12
CC(C)(C)OC(=O)NCCOC(=O)N[C@@H](Cc1ccccc1)C(=O)N[C@@H](Cc1c[nH]cn1)C(=O)N[C@@H](CC1CCCCC1)[C@@H](O)CC(=O)N[C@@H](CCCCN)C(=O)NCC1CCNCC1 [Example 26, Boc-NHCH2CH2OCO-Phe-His-ACHPA-Lys-NHCH2(piperidin-4-yl)]	39
CC(C)S(=O)(=O)N[C@@H](Cc1ccccc1)C(=O)N[C@@H](Cc1c[nH]cn1)C(=O)N[C@@H](CC1CCCCC1)[C@@H](O)CC(=O)N[C@@H](CCCCN)C(=O)NCC1CCNCC1 [Example 27, i-PrSO2-Phe-His-ACHPA-Lys-CH2(piperidin-4-yl)]	159
N^α-t-butoxycarbonyl-L-phenylalanyl-L-histidyl-(3S,4S)-4-amino-5-cyclohexyl-3-hydroxypentanoyl-L-lysyl-N-(2-aminoethyl)-morpholine amide dihydrochloride [Example 12]	68.9
